According to patent US20220175675A1, “ENCAPSULATING MOLECULES IN FAT GLOBULES” (The Regents of the University of California, priority 2019, published 2022):
Several values for one entry are separate records, joined by “and”; a condition that tells them apart may be missing. Equal entries are not always repeated. Where two headings read alike, the source gives them in different places. Marks after values point to notes of the source that are not given here.

Legend:
[1] = cited from earlier work
[2] = Encapsulation of hydrophobic compounds into milk fat globules (loading capacity, encapsulation efficiency); type: physicochemical, bovine; settings: 10% v/v ethanol, 30 min; for % Encapsulation efficiency / maximal loading capacity (LC): room temperature; for maximal loading capacity (LC): maximal value over 50-2500 μM
Description: Raw milk was procured from a local market and stored at 4° C. Milk was used for up to 4 days post purchase. MFGs were separated from raw milk using centrifugal separation following a modified version of the method by Gallier et al. (2010) (12). First, raw milk was diluted with Milli-Q water at 9:1 water to milk, and the solution was centrifuged at 3,000×g for 5 min using a fixed angle centrifuge rotor. Cream was then skimmed off the sides of the centrifuged tubes after discarding the aqueous phase. In order to remove more of the milk serum components, cream was reconstituted in water to reach 4% w/v, and subjected to another step of centrifugation at 3,000×g for 5 min Cream was collected as detailed prior, then reconstituted to 20% w/v in Milli-Q water. All separation steps were completed at room temperature.
Encapsulation of test compounds in MFGs was accomplished by mixing ethanolic stock solution of a compound with 20% w/v cream suspended in water. The mixture was gently inverted several times to mix, then allowed in incubate in the dark.
To test the effect of incubation temperature on the partitioning and encapsulation yield and efficiency, RA was added at 250 μM concentration and was allowed to incubate with MFGs for 30 min at 4, 22, and 40° C.
To quantify the amount of compound encapsulated in MFGs, cream was separated from ethanol-containing aqueous phase via centrifugal separation at 3,000 x g for 5 min. Cream was skimmed and added to methanol at 50 mg/mL and vortexed vigorously for 1 min, then centrifuged at 16,000×g for 10 min. Top layer of methanol was collected and absorbance was measured at appropriate wavelength for each compound. An absorbance blank was prepared following the same encapsulation and separation steps in the absence of compound. λmax in methanol (nm) for each compound is reported in Table 1.
Cream (20% w/v in Milli-Q water) that was separated following the steps in Example 2 was further separated via centrifugation at 3,000×g for 5 min. Fat content in cream was measured using a modified Folch method (13). An additional washing step was incorporated where the chloroform/water interface was washed with 1:1 water/methanol solution.

[3] = cited from earlier work; for Water/octanol partitioning coefficient, Log P: Measured or estimated, from references; for Log P: octanol/water
[4] = Water/octanol partitioning coefficient, Log P
Description: One such molecular property that is used to predict partitioning potential is the octanol—water partition coefficient; Log P, which is the logarithm of the ratio of the solute concentration in the octanol phase to the solute concentration in the water phase, at a defined temperature.

[5] = Loading of curcumin in milk fat globules; type: physicochemical, bovine
Description: Raw milk was used within 3-4 days of purchasing during which it was stored at 4° C. MFGs were isolated using a modified form of the method by […] et al. (2010) ^3° . […] Raw cream that was separated following the method stated in Example 31 was used for the quantification of oil content per gram of raw cream. […] The two immiscible phases were separated. […] Chloroform extracts were combined and the solvent was removed under vacuum at room temperature for 24 h. Mass of the isolated lipid from the sample was measured gravimetrically. Measurements were completed in triplicated from independent raw milk samples. […] Incubation was completed in the dark to prevent photodegradation of curcumin. […] Encapsulations measurements were conducted in triplicates. […] The mixture was then vortexed rigorously, followed by centrifugation at 16,000×g for 10 min. […] Curcumin containing samples were kept covered throughout the extraction and measurements steps. The encapsulation efficiency was calculated as follows: where CE is the mass of curcumin extracted from MFGs, and […]. The loading capacity was calculated as follows: where CE is the mass of curcumin extracted from MFGs, and MF is the mass of milk fat in MFGs suspension.

[6] = AAPH measurement of curcumin oxidative stability; type: physicochemical
Description: 100 mg/ml encapsulated oleosome and encapsulated whey protein emulsion were respectively added with 40mM AAPH (Sigma) or water as control. Encapsulated oleosome and whey protein emulsion were then rotated and curcumin was extracted at different time points.

[7] = 200 μg/g added curcumin/cream, 1 v/v % ethanol, 10 min
[8] = 400 μg/g added curcumin/cream, 2 v/v % ethanol, 10 min
[9] = 600 μg/g added curcumin/cream, 3 v/v % ethanol, 10 min
[10] = 1000 μg/g added curcumin/cream, 5 v/v % ethanol, 10 min
[11] = 1600 μg/g added curcumin/cream, 8 v/v % ethanol, 10 min
[12] = 2000 μg/g added curcumin/cream, 10 v/v % ethanol, 10 min

CC(=O)CC(c1ccccc1)c1c(O)c2ccccc2oc1=O (stereo not shown) [Warfarin]
solubility in water (Remarks) [1]: Drug freely soluble in water, crushed tablets often dissolved in water.

O=c1c(O)c(-c2ccc(O)c(O)c2)oc2cc(O)ccc12 [Fisetin]
% Encapsulation efficiency ([2]; 50 μM added compound): 28.64 ± 5.20%
% Encapsulation efficiency ([2]; 100 μM added compound): 29.16 ± 1.50%
% Encapsulation efficiency ([2]; 150 μM added compound): 30.55 ± 3.76%
% Encapsulation efficiency ([2]; 200 μM added compound): 29.83 ± 2.47%
% Encapsulation efficiency ([2]; 250 μM added compound): 28.41 ± 1.56%
% Encapsulation efficiency ([2]; 500 μM added compound): 15.89 ± 1.42 %
% Encapsulation efficiency ([2]; 1000 μM added compound): 15.16 ± 1.46 %
% Encapsulation efficiency ([2]; 1500 μM added compound): 7.57 ± 0.43 %
% Encapsulation efficiency ([2]; 2000 μM added compound): 14.26 ± 2.77 %
% Encapsulation efficiency ([2]; 2500 μM added compound): 4.49 ± 1.08 %
maximal loading capacity (LC) [2]: 9.77 μg per gram of milk fat
Water/octanol partitioning coefficient, Log P [3]: 0.464-2.52 ^(14, 15)
logP [4]: ~1.5

COc1cc(/C=C/C(=O)CC(=O)/C=C/c2ccc(O)c(OC)c2)ccc1O [curcumin]
increase in encapsulation yield compared to reported loading values in emulsions formed using edible oils [5]: at least 3 folds
EE % [5, 7]: 62.09 ± 1.46%
LC %, curcumin/milk fat [5, 7]: 368 μg/g and 368.11 ± 2.92 ^a μg/g
EE % [5, 8]: 61.17 ± 2.13%
LC %, curcumin/milk fat [5, 8]: 244.69 ± 8.53 ^b μg/g
EE % [5, 9]: 62.10 ± 2.54%
LC %, curcumin/milk fat [5, 9]: 372.60 ± 15.27 ^c μg/g
EE % [5, 10]: 66.56 ± 0.13 %
LC %, curcumin/milk fat [5, 10]: 665.55 ± 1.31 ^d μg/g
EE % [5, 11]: 62.55 ± 0.37%
LC %, curcumin/milk fat [5, 11]: 1000.76 ± 5.97 ^e μg/g
EE % [5, 12]: 59.33 ± 0.73%
LC %, curcumin/milk fat [5, 12]: 1186.65±14.63 μg/g and 1186 μg/g and 1186.65 ± 14.63 ^ μg/g
EE % range over curcumin and ethanol concentrations ([5]; 200-2000 μg/g of raw cream, 1 to 10% v/v ethanol, 10 min): 59-64%
EE % ([5]; Incubation time 10 min, fixed concentration of curcumin and ethanol): 62.36 ± 1.85%
EE % ([5]; Incubation time 20 min, fixed concentration of curcumin and ethanol): 66.43 ± 4.32%
EE % ([5]; Incubation time 30 min, fixed concentration of curcumin and ethanol): 61.20 ± 1.78%
EE % ([5]; Incubation time 40 min, fixed concentration of curcumin and ethanol): 59.75 ± 2.10%
EE % ([5]; Incubation time 50 min, fixed concentration of curcumin and ethanol): 57.24 ± 0.83 %
EE % ([5]; Incubation time 60 min, fixed concentration of curcumin and ethanol): 64.30 ± 2.42%
curcumin encapsulated per gram of milk fat ([5]; MFGs, simple diffusion): Greater than 1000 μg
curcumin absorbance remaining ([6]; WPI control group (water), at 20 and 24 h): 90%
curcumin absorbance remaining ([6]; WPI, 40mM AAPH): 0.03%
curcumin absorbance remaining ([6]; WPI, 40mM AAPH, 20 h): 22%
curcumin absorbance remaining ([6]; WPI, 40mM AAPH, 24 h): 12%
curcumin absorbance remaining ([6]; oleosome control group (water), within 46 h): above 90%
curcumin absorbance remaining ([6]; oleosome, 40mM AAPH): 42%
curcumin absorbance remaining ([6]; oleosome, 40mM AAPH, 20 h): 76%
curcumin absorbance remaining ([6]; oleosome, 40mM AAPH, 24 h): 68%
Log P [3]: 4.3
Log P ([3]; listed as Curcumin): approximately 4.3

CCOC(=O)[C@H](CCc1ccccc1)N[C@@H](C)C(=O)N1[C@H](C(=O)O)C[C@@H]2CCC[C@@H]21 [Ramipril]
solubility in water (Remarks) [1]: Drug sparingly soluble in water. Crushed tablets suspended in water

CC(=O)Oc1ccccc1C(=O)O [Aspirin]
solubility in water (Remarks) [1]: Very water soluble drug-use dispersible tablets

CCOC(=O)[C@H](CCc1ccccc1)N[C@@H](C)C(=O)N1CCC[C@H]1C(=O)O [Enalapril]
solubility in water (Remarks) [1]: Drug sparingly soluble in water. Crushed tablets suspended in water

O=C1Nc2ccc(Cl)cc2[C@@](C#CC2CC2)(C(F)(F)F)O1 [Efavirenz]
Waters solubility [1]: 8.55 µg/mL
Log P [3]: 3.89-4.46

CCOC(=O)C1=C(COCCN)NC(C)=C(C(=O)OC)C1c1ccccc1Cl (stereo not shown) [Amlodipine]
solubility in water (Remarks) [1]: Drug sparingly soluble in water. Special only has 1-month shelf-life.

O.O=c1c(O)c(-c2ccc(O)c(O)c2)oc2cc(O)cc(O)c12 [Quercetin hydrate]
% Encapsulation efficiency ([2]; 50 μM added compound): 25.27 ± 3.47^ %
% Encapsulation efficiency ([2]; 100 μM added compound): 45.35 ± 8.53 %
% Encapsulation efficiency ([2]; 150 μM added compound): 43.78 ± 4.16 %
% Encapsulation efficiency ([2]; 200 μM added compound): 50.09 ± 3.71 %
% Encapsulation efficiency ([2]; 250 μM added compound): 48.95 ± 3.47 %
% Encapsulation efficiency ([2]; 500 μM added compound): 49.00 ± 1.17 %
% Encapsulation efficiency ([2]; 1000 μM added compound): 12.91 ± 1.78 %
% Encapsulation efficiency ([2]; 1500 μM added compound): 18.38 ± 9.27 %
% Encapsulation efficiency ([2]; 2000 μM added compound): 17.92 ± 4.31 %
% Encapsulation efficiency ([2]; 2500 μM added compound): 13.70 ± 1.30 %
maximal loading capacity (LC) [2]: 12.97 μg per gram of milk fat
encapsulation efficiency (EE %), maximal/overall value ([2]; over tested concentrations): 50%
Water/octanol partitioning coefficient, Log P [3]: 1.82-2.075 ^(16, 17)

CC[C@H](C)C(=O)O[C@H]1C[C@H](O)C=C2C=C[C@H](C)[C@H](CC[C@@H](O)C[C@@H](O)CC(=O)O)[C@H]21 [Pravastatin]
solubility in water (Remarks) [1]: Drug freely soluble in water, crushed tablets often dissolved in water.

COc1ccccc1OCCNCC(O)COc1cccc2[nH]c3ccccc3c12 (stereo not shown) [Carvedilol]
solubility in water (Remarks) [1]: Drug sparingly soluble in water. Special only has 1-month shelf-life.

CC(C)(C)NCC(O)COc1cccc2c1CC(O)C(O)C2 (stereo not shown) [Nadolol]
solubility in water (Remarks) [1]: Drug sparingly soluble in water. Special only has 1-month shelf-life.
